From US20230365576A1, “BRM Targeting Compounds And Associated Methods Of Use” (Prelude Therapeutics Incorporated, priority 2022, published 2023) come the findings set out here.

Molecules are shown by their SMILES.

The target in one experiment is T1, SMARCA2 (Homo sapiens, UniProt P51531).
T1 construct: SMARCA2-HiBiT knock-in Hela monoclonal cell (CS302366); host or cells: HeLa (CRISPR HiBiT knock-in monoclonal line, heterozygous)
Description: SMARCA2 HiBiT degradation assay in HeLa cells. The class given is cell-based. The settings on record: 18 hours; for DC50: read-out: SMARCA2 IC50; for Dmax: HeLa. How it is done:
(§1) Example A. SMARCA2 HiBiT and SMARCA4 HiBiT Degradation Assay
(§2) Preparation of SMARCA2/4-HiBiT Knock-In Cells
(§3) HiBiT peptide knock-in of SMARCA2 in LgBiT expressing HEK293T cells was performed by CRISPR-mediated tagging system as described Promega. The homozygous HiBiT knock-in on c-terminus SMARCA2 was confirmed by sanger sequence. SMARCA2-HiBiT knock-in Hela monoclonal cell (CS302366) and SMARCA4-HiBiT knock-in Hela monoclonal cell (CS3023226) were purchased from Promega. The heterozygous HiBiT-knock-in was confirmed by sanger sequence in both SMARCA2-HiBiT and SMARCA4-HiBiT monoclonal cells.
(§4) SMARCA2 HiBiT and SMARCA4 HiBiT Degradation Assay in HeLa Cells
(§5) Compounds were dissolved in DMSO to make 10 mM stock and 3-fold series dilutions were further conducted keeping the highest concentration 10 μM. NCIH1693 and NCIH520 cells were maintained in PRMI 1640 medium (Corning Cellgro, Catalog #:10-040-CV) supplemented with 10% v/v FBS (GE Healthcare, Catalog #: SH30910.03) by splitting 1:3 twice a week.
(§6) Dispense 10 ul aliquot of prepared Hela-SMARCA2-HiBiT or Hela-SMARCA4-HiBiT cells (1:1 ratio of cells:Trypan Blue (#1450013, Bio-Rad)) onto cell counting slide (#145-0011, Bio-Rad) and obtain cell density and cell viability using cell counter (TC20, Bio-Rad). Remove appropriate volume of resuspended cells from culture flask to accommodate 2500 cells/well @ 20 μL/well. Transfer Hela-HiBiT cells to 50 mL conical (#430290, Corning). Spin down at 1000 rpm for 5 min using tabletop centrifuge (SPINCHRON 15, Beckman). Discard supernatant and resuspend cell pellet in modified EMEM (#30-2003, ATCC) cell culture media containing 10% FBS (F2422-500ML, Sigma), and 1X Penicillin/Streptomycin (200 g/L) (30-002-CI, Corning) to a cell density of 125,000 cells/mL. Dispense 20 μL of resuspended Hela-HiBit cells per well in 384-well TC treated plate (#12-565-343, Thermo Scientific) using standard cassette (#50950372, Thermo Scientific) on Multidrop Combi (#5840310, Thermo Scientific) inside laminar flow cabinet. Dispense test compounds onto plates using digital liquid dispenser (D300E, Tecan). Incubate plates in humidified tissue culture incubator @37° C. for 18 hours. Add 20 μL of prepared Nano-Glo® HiBiT Lytic detection buffer (N3050, Promega) to each well of 384-well plate using small tube cassette (#24073295, Thermo Scientific) on Multidrop Combi, incubate @ RT for 30-60 min. Read plates on microplate reader (Envision 2105, PerkinElmer) using 384 well Ultra-Sensitive luminescence mode. Raw data files and compound information reports are swept into centralized data lake and deconvoluted using automated scripts designed by TetraScience, Inc. Data analysis, curve-fitting and reporting done in Dotmatics Informatics Suite using Screening Ultra module.
On the technique in general: With HiBiT, luminescence reflects the tagged protein that the partner subunit can reach.

The next experiment deals with T2, SMARCA4 (Homo sapiens, UniProt P51532).
T2 construct: SMARCA4-HiBiT knock-in Hela monoclonal cell (CS3023226) were purchased from Promega; host or cells: HeLa (CRISPR HiBiT knock-in monoclonal line, heterozygous)
T2 sequence (P51532 whole entry): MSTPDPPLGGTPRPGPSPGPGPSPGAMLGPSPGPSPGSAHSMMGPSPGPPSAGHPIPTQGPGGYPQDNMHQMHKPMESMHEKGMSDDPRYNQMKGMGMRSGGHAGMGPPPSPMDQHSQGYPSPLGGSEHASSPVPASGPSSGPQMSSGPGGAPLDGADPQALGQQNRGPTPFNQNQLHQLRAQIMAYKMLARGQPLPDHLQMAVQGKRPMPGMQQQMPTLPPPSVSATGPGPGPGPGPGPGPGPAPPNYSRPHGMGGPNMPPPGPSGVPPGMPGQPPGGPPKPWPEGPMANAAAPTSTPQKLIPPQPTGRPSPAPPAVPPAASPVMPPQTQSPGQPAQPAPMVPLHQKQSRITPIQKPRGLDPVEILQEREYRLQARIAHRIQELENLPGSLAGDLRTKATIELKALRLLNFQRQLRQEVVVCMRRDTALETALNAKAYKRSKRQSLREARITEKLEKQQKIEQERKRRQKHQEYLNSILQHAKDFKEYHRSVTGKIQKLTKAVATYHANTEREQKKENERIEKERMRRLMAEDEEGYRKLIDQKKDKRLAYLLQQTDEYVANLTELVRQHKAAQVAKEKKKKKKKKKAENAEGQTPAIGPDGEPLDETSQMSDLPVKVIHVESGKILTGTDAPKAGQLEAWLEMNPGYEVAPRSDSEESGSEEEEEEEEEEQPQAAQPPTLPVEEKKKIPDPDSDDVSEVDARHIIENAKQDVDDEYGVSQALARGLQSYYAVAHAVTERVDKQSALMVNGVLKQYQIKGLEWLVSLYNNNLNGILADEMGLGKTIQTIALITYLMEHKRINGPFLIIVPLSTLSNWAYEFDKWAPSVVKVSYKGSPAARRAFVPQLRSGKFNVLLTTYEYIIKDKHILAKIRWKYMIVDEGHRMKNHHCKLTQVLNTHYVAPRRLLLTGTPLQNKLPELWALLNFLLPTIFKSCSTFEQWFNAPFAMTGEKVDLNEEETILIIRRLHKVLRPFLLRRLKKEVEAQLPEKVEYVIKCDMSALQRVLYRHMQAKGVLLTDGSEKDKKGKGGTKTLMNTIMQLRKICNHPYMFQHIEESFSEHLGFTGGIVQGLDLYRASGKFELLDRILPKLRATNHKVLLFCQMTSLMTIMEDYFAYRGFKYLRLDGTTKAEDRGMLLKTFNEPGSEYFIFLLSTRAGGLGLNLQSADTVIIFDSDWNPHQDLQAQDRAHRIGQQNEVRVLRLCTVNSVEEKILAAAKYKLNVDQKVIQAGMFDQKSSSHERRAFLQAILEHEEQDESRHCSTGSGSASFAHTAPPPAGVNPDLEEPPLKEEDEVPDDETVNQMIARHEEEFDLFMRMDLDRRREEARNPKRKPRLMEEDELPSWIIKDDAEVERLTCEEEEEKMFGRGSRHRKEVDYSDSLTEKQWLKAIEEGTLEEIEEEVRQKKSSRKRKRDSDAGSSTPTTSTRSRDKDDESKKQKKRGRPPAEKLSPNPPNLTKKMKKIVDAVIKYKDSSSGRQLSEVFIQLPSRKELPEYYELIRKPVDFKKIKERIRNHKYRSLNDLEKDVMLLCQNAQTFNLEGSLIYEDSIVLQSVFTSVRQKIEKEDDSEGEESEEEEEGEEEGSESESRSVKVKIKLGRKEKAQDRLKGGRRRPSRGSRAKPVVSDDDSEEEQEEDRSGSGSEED
Nature of the experiment: SMARCA4 HiBiT degradation assay in HeLa cells. The settings on record: 18 hours; for Dmax: HeLa. Format: cell-based. How it is done:
as §1, §2, §3, §4, §5, §6

T1 sequence (P51531 whole entry): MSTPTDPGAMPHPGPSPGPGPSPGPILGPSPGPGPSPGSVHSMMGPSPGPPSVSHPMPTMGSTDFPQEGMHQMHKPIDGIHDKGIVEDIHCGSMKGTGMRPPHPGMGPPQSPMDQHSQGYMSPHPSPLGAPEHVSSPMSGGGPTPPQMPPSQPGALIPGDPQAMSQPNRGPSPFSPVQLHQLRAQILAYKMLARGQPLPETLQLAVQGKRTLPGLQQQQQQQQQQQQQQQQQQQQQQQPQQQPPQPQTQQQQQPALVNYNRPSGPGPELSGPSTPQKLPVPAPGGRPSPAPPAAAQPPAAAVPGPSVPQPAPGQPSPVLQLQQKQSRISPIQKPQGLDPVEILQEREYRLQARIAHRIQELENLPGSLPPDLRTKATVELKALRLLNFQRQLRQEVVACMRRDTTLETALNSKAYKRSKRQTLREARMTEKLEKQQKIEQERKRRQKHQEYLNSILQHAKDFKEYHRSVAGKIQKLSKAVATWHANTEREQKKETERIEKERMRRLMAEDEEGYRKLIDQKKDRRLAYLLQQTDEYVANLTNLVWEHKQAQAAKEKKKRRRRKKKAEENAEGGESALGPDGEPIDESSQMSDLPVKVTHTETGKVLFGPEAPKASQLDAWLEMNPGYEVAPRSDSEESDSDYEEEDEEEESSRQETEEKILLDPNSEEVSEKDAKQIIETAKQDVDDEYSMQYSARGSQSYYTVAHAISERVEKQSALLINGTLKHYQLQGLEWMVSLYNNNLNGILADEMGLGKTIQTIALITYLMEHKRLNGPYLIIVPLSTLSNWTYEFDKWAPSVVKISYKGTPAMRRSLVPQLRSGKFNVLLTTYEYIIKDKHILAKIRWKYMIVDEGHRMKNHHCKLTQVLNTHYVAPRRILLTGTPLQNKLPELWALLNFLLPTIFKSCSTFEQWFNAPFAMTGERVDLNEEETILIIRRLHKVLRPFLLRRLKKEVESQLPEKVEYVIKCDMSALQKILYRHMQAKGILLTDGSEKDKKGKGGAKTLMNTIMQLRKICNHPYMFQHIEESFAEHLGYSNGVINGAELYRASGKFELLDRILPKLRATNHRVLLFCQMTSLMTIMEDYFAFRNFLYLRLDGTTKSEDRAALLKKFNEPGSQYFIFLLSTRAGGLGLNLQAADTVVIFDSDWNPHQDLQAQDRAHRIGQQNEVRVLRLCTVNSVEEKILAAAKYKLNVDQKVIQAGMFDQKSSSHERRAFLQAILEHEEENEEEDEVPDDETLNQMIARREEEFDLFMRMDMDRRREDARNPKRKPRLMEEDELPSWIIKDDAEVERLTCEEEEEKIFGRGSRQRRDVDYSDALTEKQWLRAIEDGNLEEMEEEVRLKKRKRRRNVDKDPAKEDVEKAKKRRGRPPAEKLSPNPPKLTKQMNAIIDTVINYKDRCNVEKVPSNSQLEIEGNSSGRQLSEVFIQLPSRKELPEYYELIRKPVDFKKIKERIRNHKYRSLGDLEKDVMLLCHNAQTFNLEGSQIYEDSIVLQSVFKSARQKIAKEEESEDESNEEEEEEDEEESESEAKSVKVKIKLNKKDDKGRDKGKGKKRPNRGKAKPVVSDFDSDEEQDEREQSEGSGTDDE

Take `CC1(C)CN(CC2CCN(c3ccc4c(c3)C(=O)N(C3CCC(=O)NC3=O)C4)CC2)CCN1C(=O)N1CCN2c3cc(-c4cccc(F)c4O)nnc3NCC2(C)C1` (single isomer, unassigned) [Example 10, 3-(6-(4-((4-(2-(3-fluoro-2-hydroxyphenyl)-6a-methyl-6,6a,7,8,9,10-hexahydro-5H-pyrazino[1′,2′:4,5]pyrazino[2,3-c]pyridazine-8-carbonyl)-3,3-dimethylpiperazin-1-yl)methyl)piperidin-1-yl)-1-oxoisoindolin-2-yl)piperidine-2,6-dione]: at SMARCA2, the “SMARCA2 DMax %” value is “A (A=Dmax>75%)” and the DC50 was less than 100 nM. Further, at SMARCA4, the DC50 is less than 100 nM and the “SMARCA4 DMax %” value is listed as “C (C=Dmax<50%)”.

As to `C[C@@H]1CN(CC2CCN(c3ccc4c(c3)C(=O)N(C3CCC(=O)NC3=O)C4)CC2)C[C@H](C)N1C(=O)N1CCN2c3cc(-c4cccc(F)c4O)nnc3NCC2(C)C1` (single isomer, unassigned) [Example 11], on SMARCA2, the DC50 was less than 100 nM and the Dmax was more than 75%. Moreover, at SMARCA4, the DC50 was less than 100 nM and the “SMARCA4 DMax %” value is recorded as “B (B=50%<Dmax≤75%)”.

Take `C[C@@H]1CN(CC2CCN(c3ccc4c(c3)C(=O)N(C3CCC(=O)NC3=O)C4)CC2)C[C@H](C)N1C(=O)N1CCN2c3cc(-c4cccc(F)c4O)nnc3NCC2(C)C1` (single isomer, unassigned) [Example 12]: on SMARCA2, the “SMARCA2 DMax %” value is “A (A=Dmax>75%)” and the DC50 was less than 100 nM. Besides, at SMARCA4, the DC50 was less than 100 nM and the “SMARCA4 DMax %” value is reported as “A (A=Dmax>75%)”.

For `C[C@@H]1CN(CC2CCN(c3ccc4c(c3)C(=O)N(C3CCC(=O)NC3=O)C4)CC2)C[C@@H](C)N1C(=O)N1CCN2c3cc(-c4cccc(F)c4O)nnc3NCC2(C)C1` (single isomer, unassigned) [Example 13], at SMARCA2, the DC50 is less than 100 nM and the greatest degradation seen (Dmax) is more than 75%. On SMARCA4, this molecule displayed a DC50 of less than 100 nM and a Dmax of less than 50%.

Turning to `C[C@@H]1CN(CC2CCN(c3ccc4c(c3)C(=O)N(C3CCC(=O)NC3=O)C4)CC2)C[C@@H](C)N1C(=O)N1CCN2c3cc(-c4cccc(Cl)c4O)nnc3NCC2(C)C1` (single isomer, unassigned) [Example 14], the DC50 on SMARCA2 and at SMARCA4 was less than 100 nM throughout. For the same molecule, the Dmax on SMARCA2 was more than 75%; at SMARCA4 it was 50 to 75%.

`C[C@@H]1CN(CC2CCN(c3ccc4c(c3)C(=O)N(C3CCC(=O)NC3=O)C4)CC2)C[C@@H](C)N1C(=O)N1CCN2c3cc(-c4cc(F)cc(F)c4O)nnc3NCC2(C)C1` (single isomer, unassigned) [Example 28]: at SMARCA2, the DC50 was less than 100 nM and the Dmax was more than 75%. Further, on SMARCA4, the DC50 is less than 100 nM and the Dmax is less than 50%.

Consider `C[C@@H]1CN(CC2CCN(c3ccc4c(c3)C(=O)N(C3CCC(=O)NC3=O)C4)CC2)C[C@H](C)N1C(=O)N1CCN2c3cc(-c4cc(F)cc(F)c4O)nnc3NCC2(C)C1` (single isomer, unassigned) [Example 34], for which the DC50 at SMARCA2 and on SMARCA4 was less than 100 nM in each case. Further, the Dmax at SMARCA2 and on SMARCA4 was more than 75% each time.

On to `O=C1CCC(N2Cc3ccc(N4CC[C@H](CN5C[C@@H]6[C@H](C5)[C@H]6CN5CCN6c7cc(-c8cc(F)cc(F)c8O)nnc7NC[C@H]6C5)[C@@H](F)C4)cc3C2=O)C(=O)N1` (single isomer, unassigned) [Example 37], for which the DC50 at SMARCA2 and on SMARCA4 was less than 100 nM in each case. The Dmax on SMARCA2 is more than 75%.

Consider `C[C@H]1CN2c3cc(-c4cc(F)cc(F)c4O)nnc3NC[C@H]2CN1C[C@H]1[C@@H]2CN(C[C@H]3CCN(c4ccc5c(c4)C(=O)N(C4CCC(=O)NC4=O)C5)C[C@@H]3F)C[C@@H]21` (single isomer, unassigned) [Example 39], for which, at SMARCA2, the DC50 is less than 100 nM and the Dmax is more than 75%. For the same molecule, on SMARCA4, the DC50 was less than 100 nM and the maximal degradation (Dmax) is less than 50%.

`O=C1CCC(N2Cc3ccc(N4CCC(CN5C[C@@H]6[C@H](C5)[C@H]6CN5CCN6c7cc(-c8cc(F)cc(F)c8O)nnc7NC[C@H]6C5)C(F)(F)C4)cc3C2=O)C(=O)N1` (single isomer, unassigned) [Example 40]: on SMARCA2, the “SMARCA2 DMax %” value is “B (B=50%<Dmax≤75%)” and the DC50 is less than 100 nM. At SMARCA4, this molecule returned a DC50 of less than 100 nM and a maximal degradation (Dmax) of 50 to 75%.

For `O=C1CCC(N2Cc3ccc(N4CCC(CN5C[C@@H]6[C@H](C5)[C@H]6CN5CCN6c7cc(-c8cc(F)cc(F)c8O)nnc7NC[C@H]6C5)C(F)(F)C4)cc3C2=O)C(=O)N1` (single isomer, unassigned) [Example 41], at SMARCA2, the “SMARCA2 DMax %” value is reported as “A (A=Dmax>75%)” and the DC50 is less than 100 nM. Further, on SMARCA4, the DC50 is less than 100 nM and the “SMARCA4 DMax %” value is “B (B=50%<Dmax≤75%)”.

With `C[C@@H]1CN(C[C@H]2CCN(c3ccc4c(c3)C(=O)N(C3CCC(=O)NC3=O)C4)C[C@@H]2F)C[C@H](C)N1C(=O)N1CCN2c3cc(-c4cccc(F)c4O)nnc3NC[C@H]2C1` (single isomer, unassigned) [Example 44], the DC50 on SMARCA2 and at SMARCA4 was less than 100 nM in each case. The maximal degradation (Dmax) is more than 75% on SMARCA2 and less than 50% on SMARCA4.

In the case of `CCC12CNc3nnc(-c4cc(F)cc(F)c4O)cc3N1CCN(C(=O)N1[C@H](C)CN(CC3CCN(c4ccc5c(c4)C(=O)N(C4CCC(=O)NC4=O)C5)CC3)C[C@@H]1C)C2` (single isomer, unassigned) [Example 59], on SMARCA2, the DC50 was less than 100 nM and the greatest degradation seen (Dmax) is more than 75%. At SMARCA4, this molecule showed a DC50 of less than 100 nM and a Dmax of more than 75%.

On to `CCC12CNc3nnc(-c4cccc(F)c4O)cc3N1CCN(C(=O)N1[C@H](C)CN(CC3CCN(c4ccc5c(c4)C(=O)N(C4CCC(=O)NC4=O)C5)CC3)C[C@@H]1C)C2` (single isomer, unassigned) [Example 60], for which, at SMARCA2, the DC50 is less than 100 nM and the Dmax was more than 75%. Also, on SMARCA4, the DC50 was less than 100 nM and the maximal degradation (Dmax) was more than 75%.

As to `CCC12CNc3nnc(-c4cc(F)cc(F)c4O)cc3N1CCN(C(=O)N1[C@H](C)CN(CC3CCN(c4ccc5c(c4)C(=O)N(C4CCC(=O)NC4=O)C5)CC3)C[C@@H]1C)C2` (single isomer, unassigned) [Example 61], the DC50 at SMARCA2 and at SMARCA4 was less than 100 nM in each case.

On to `CCC12CNc3nnc(-c4cccc(F)c4O)cc3N1CCN(C(=O)N1[C@H](C)CN(CC3CCN(c4ccc5c(c4)C(=O)N(C4CCC(=O)NC4=O)C5)CC3)C[C@@H]1C)C2` (single isomer, unassigned) [Example 62], for which, on SMARCA2, the “SMARCA2 DMax %” value was “A (A=Dmax>75%)” and the DC50 was less than 100 nM. Also, on SMARCA4, the DC50 is less than 100 nM and the “SMARCA4 DMax %” value was “A (A=Dmax>75%)”.

Regarding `C[C@@H]1CN(CC2CCN(c3ccc4c(c3)C(=O)N(C3CCC(=O)NC3=O)C4)CC2)C[C@@H](C)N1C(=O)N1CCN2c3cc(-c4cccc(Cl)c4O)nnc3NCC2(C)C1` (single isomer, unassigned) [Example 63], the DC50 on SMARCA2 and on SMARCA4 was less than 100 nM in each case.

`C[C@@H]1CN(CC2CCN(c3ccc4c(c3)C(=O)N(C3CCC(=O)NC3=O)C4)CC2)C[C@H](C)N1C(=O)N1CCN2c3cc(-c4cc(F)cc(F)c4O)nnc3NCC2(C)C1` (single isomer, unassigned) [Example 64]: the DC50 on SMARCA2 and on SMARCA4 was less than 100 nM throughout.

For the molecule `CCC12CNc3nnc(-c4cccc(F)c4O)cc3N1CCN(C(=O)N1CCN(CC3CCN(c4ccc5c(c4)C(=O)N([C@H]4CCC(=O)NC4=O)C5)CC3)CC1(C)C)C2` (single isomer, unassigned) [Example 74], at SMARCA2, the DC50 is less than 100 nM and the Dmax is more than 75%. On SMARCA4, this molecule registered a DC50 of less than 100 nM and a Dmax of 50 to 75%.

By Dmax is commonly meant the greatest extent of degradation seen. A higher Dmax goes with a fuller loss of target.
